Values after ≈ are worked out from the molar mass of the structure shown.

For data set [1], the system named is Staphylococcus aureus 209P. The experiment in a line: Antibacterial activity, agar plate dilution method (MIC). The conditions noted are these: Microorganism A: Staphylococcus aureus 209P; read-out: Minimal inhibitory concentration. In kind it is cell-based. The method, then: Antibacterial activity was measured by the agar plate dilution method, whereby the minimal inhibitory concentration (μg/ml) against various pathogenic bacteria was determined. In the Table, bacteria A, B and C provided for the test are as follows: A: Staphylococcus aureus […]

A further data set relates to Escherichia coli NIHJ. Described as above. In kind it is cell-based. The settings on record: Microorganism B: Escherichia coli NIHJ; read-out: Minimal inhibitory concentration. The method, then:
Antibacterial activity was measured by the agar plate dilution method, whereby the minimal inhibitory concentration (μg/ml) against various pathogenic bacteria was determined. In the Table, bacteria A, B and C provided for the test are as follows: B: Escherichia coli NIHJ

Data set [2] has as its system Pseudomonas aeruginosa 1001. Described as above. The settings on record: Microorganism C: Pseudomonas aeruginosa 1001; read-out: Minimal inhibitory concentration. In kind it is cell-based. Here is the method:
Antibacterial activity was measured by the agar plate dilution method, whereby the minimal inhibitory concentration (μg/ml) against various pathogenic bacteria was determined. In the Table, bacteria A, B and C provided for the test are as follows: C: Pseudomonas aeruginosa 1001

The conditions of data set [3]: in words; background art; cited from earlier work.

In the case of `C[C@@H](O)[C@H]1C(=O)N2C(C(=O)O)=C(S[C@@H]3CN[C@H](C(=O)N4CC[C@H](NC(=O)[C@@H]5CCCN5)C4)C3)[C@H](C)[C@H]12` [Ex. 1, (1R,5S,6S)-6-(1R)-[1-Hydroxyethyl]-1-methyl-2-[(2S,4S)-2-[(3S)-3-(L-prolylamino)pyrrolidin-1-ylcarbonyl]pyrrolidin-4-ylthio]-1-carbapen-2-em-3-carboxylic acid], the values for the MIC (in data set [1]; with Escherichia coli NIHJ; in data set [2]) were not above 0.01 µg/mL, not above 0.01 µg/mL and 0.1 µg/mL (≈ 0.192 µM), respectively.

`C[C@@H](O)[C@H]1C(=O)N2C(C(=O)O)=C(S[C@@H]3CN[C@H](C(=O)N4CC[C@H](NC(=O)CNC(=N)N)C4)C3)[C@H](C)[C@H]12` [Ex. 8]: the MIC in data set [1] was not above 0.01 µg/mL; with Escherichia coli NIHJ, not above 0.01 µg/mL; in data set [2], 0.05 µg/mL (≈ 0.0955 µM).

Regarding `C[C@@H](O)[C@H]1C(=O)N2C(C(=O)O)=C(S[C@@H]3CN[C@H](C(O)CC(=O)N4CC[C@H](N)C4)C3)[C@H](C)[C@H]12` (stereo partly drawn) [Ex. 12, (1R,5S,6S)-2-[(2S,4S)-2-[1-Hydroxy-2-[(3S)-3-aminopyrrolidin-1-ylcarbonyl]ethyl]-pyrrolidin-4-ylthio]-6-[(1R)-1-hydroxyethyl]-1-methyl-1-carbapen-2-em-3-carboxylic acid], the MIC in data set [1] is not above 0.01 µg/mL; in the data set on Escherichia coli NIHJ, 0.02 µg/mL (≈ 0.0427 µM); in data set [2], 0.2 µg/mL (≈ 0.427 µM).

As for `C[C@@H](O)[C@H]1C(=O)N2C(C(=O)O)=C(S[C@@H]3CN[C@H](C(=O)N4CC(NC(=O)CCNC(=N)N)C4)C3)[C@H](C)[C@H]12` [Ex. 17, (1R,5S,6S)-2-[(2S,4S)-2-[3-(3-Guanidinopropanoylamino)azetidin-1-ylcarbonyl]-pyrrolidin-4-ylthio]-6-[(1R)-1-hydroxyethyl]-1-methyl-1-carbapen-2-em-3-carboxylic acid], the figures for the MIC (in data set [1]; with Escherichia coli NIHJ; in data set [2]) were not above 0.01 µg/mL, not above 0.01 µg/mL and 0.05 µg/mL (≈ 0.0955 µM), respectively.

As for `C[C@@H](NC(=N)N)C(=O)N[C@H]1CCN(C(=O)[C@@H]2C[C@H](SC3=C(C(=O)O)N4C(=O)[C@H]([C@@H](C)O)[C@H]4[C@H]3C)CN2)C1` [Ex. 27, (1R,5S,6S)-2-[(2S,4S)-2-[(3S)-3-[(2R)-2-Guanidino-2-methylacetylamino]pyrrolidin-1-ylcarbonyl]pyrrolidin-4-ylthio]-6-[(1R)-1-hydroxyethyl]-1-methyl-1-carbapen-2-em-3-carboxylic acid], the results for the MIC (in data set [1]; with Escherichia coli NIHJ; in data set [2]) were not above 0.01 µg/mL, not above 0.01 µg/mL and 0.05 µg/mL (≈ 0.093 µM), respectively.

In the case of `C[C@@H](O)[C@H]1C(=O)N2C(C(=O)O)=C(S[C@@H]3CN[C@H](C(O)CC(=O)N[C@H]4CCNC4)C3)[C@H](C)[C@H]12` (stereo partly shown) [Ex. 49], the MIC was not above 0.01 µg/mL in data set [1], 0.02 µg/mL (≈ 0.0427 µM) in the data set on Escherichia coli NIHJ and 0.4 µg/mL (≈ 0.854 µM) in data set [2].

On to `C[C@@H](O)[C@H]1C(=O)N2C(C(=O)O)=C(S[C@@H]3CN[C@H](C(O)CC(=O)N4CCN(C(=N)N)CC4)C3)[C@H](C)[C@H]12` (stereo partly drawn) [Ex. 51, (1R,5S,6S)-2-[(2S,4S)-2-[2-(4-Guanylpiperazin-1-ylcarbonyl)-1-hydroxyethyl]-pyrrolidin-4-ylthio]-6-[(1R)-1-hydroxyethyl]-1-methyl-1-carbapen-2-em-3-carboxylic acid], for which the MIC was not above 0.01 µg/mL in data set [1], 0.02 µg/mL (≈ 0.0392 µM) with Escherichia coli NIHJ and 0.2 µg/mL (≈ 0.392 µM) in data set [2].

In the case of `C[C@@H](O)[C@H]1C(=O)N2C(C(=O)O)=C(S[C@@H]3CN[C@H]([C@H](O)CC(=O)N4CC[C@H](N)C4)C3)[C@H](C)[C@H]12` [Ex. 59, (1R,5S,6S)-2-[(2S,4S)-2-[2-[(3S)-3-Aminopyrrolidin-1-ylcarbonyl]-(1R)-1-hydroxyethyl]pyrrolidin-4-ylthio]-6-[(1R)-1-hydroxyethyl]-1-methyl-1-carbapen-2-em-3-carboxylic acid], the figures for the MIC (in data set [1]; in the data set on Escherichia coli NIHJ; in data set [2]) were not above 0.01 µg/mL, 0.02 µg/mL (≈ 0.0427 µM) and 0.2 µg/mL (≈ 0.427 µM), respectively.

Regarding `C[C@@H](O)[C@H]1C(=O)N2C(C(=O)O)=C(S[C@@H]3CN[C@H]([C@@H](O)CC(=O)N4CC[C@H](N)C4)C3)[C@H](C)[C@H]12` [Ex. 60, (1R,5S,6S)-2-[(2S,4S)-2-[2-[(3S)-3-Aminopyrrolidin-1-ylcarbonyl]-(1S)-1-hydroxyethyl]pyrrolidin-4-ylthio]-6-[(1R)-1-hydroxyethyl]-1-methyl-1-carbapen-2-em-3-carboxylic acid], the MIC in data set [1] is not above 0.01 µg/mL; in the data set on Escherichia coli NIHJ it was 0.02 µg/mL (≈ 0.0427 µM); in data set [2], 0.4 µg/mL (≈ 0.854 µM).

For the compound `C[C@@H](O)[C@H]1C(=O)N2C(C(=O)O)=C(SCCN=CN)C[C@H]12` [Imipenem, imipenem, reference compound], the MIC in data set [1] was not above 0.01 µg/mL; in the data set with Escherichia coli NIHJ it was 0.05 µg/mL (≈ 0.167 µM); in data set [2], 3.1 µg/mL (≈ 10.4 µM). Besides, in data set [3], the nephrotoxicity result is recorded as “exhibits nephrotoxicity”.

The values are drawn from US6090802A, “1- Methylcarbapenem derivatives” (Sankyo Company, Limited, priority 1995, dated 2000).
